From ChEMBL document CHEMBL1201862, “PubChem BioAssay data set” (2004)
Calls of active or inactive are those of the source.

Tests used:
T-cell = test: loss of vesicle association with mouse CD8+ T cells – mouse 2C CD8+ T cells, flow cytometry, dose response (AID 485284); format: functional
[1] = target: T1, DNA repair and recombination protein RAD54-like (Homo sapiens, UniProt Q92698); test: RAD54 Holliday junction migration blockers – biochemical, fluorescence, cherry-picked samples, dose series, confirmation (AID 651657); format: functional
T1 sequence (Q92698 whole entry): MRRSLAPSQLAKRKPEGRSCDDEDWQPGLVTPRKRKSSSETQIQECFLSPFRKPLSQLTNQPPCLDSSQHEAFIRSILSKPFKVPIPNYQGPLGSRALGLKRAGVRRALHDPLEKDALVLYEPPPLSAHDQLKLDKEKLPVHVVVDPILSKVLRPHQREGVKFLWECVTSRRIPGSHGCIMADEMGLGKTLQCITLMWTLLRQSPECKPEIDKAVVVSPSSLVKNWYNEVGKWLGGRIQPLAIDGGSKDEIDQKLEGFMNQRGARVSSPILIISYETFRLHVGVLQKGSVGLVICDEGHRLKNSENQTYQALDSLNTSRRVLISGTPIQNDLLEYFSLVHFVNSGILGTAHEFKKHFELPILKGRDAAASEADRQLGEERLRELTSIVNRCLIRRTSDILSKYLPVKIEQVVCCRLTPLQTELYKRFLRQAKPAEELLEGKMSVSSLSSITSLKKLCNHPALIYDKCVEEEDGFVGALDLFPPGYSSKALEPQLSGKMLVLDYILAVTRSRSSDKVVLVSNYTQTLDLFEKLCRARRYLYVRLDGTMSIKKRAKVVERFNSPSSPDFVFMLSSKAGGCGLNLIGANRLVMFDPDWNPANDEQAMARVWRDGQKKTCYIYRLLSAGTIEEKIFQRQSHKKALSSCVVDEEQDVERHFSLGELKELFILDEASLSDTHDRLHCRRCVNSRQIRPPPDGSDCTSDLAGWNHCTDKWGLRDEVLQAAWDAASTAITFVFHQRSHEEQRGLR

[2] = target: T2, Type-1 angiotensin II receptor (Homo sapiens, UniProt P30556); test: agonist activity at AGTR1 – cell-based, uHTS hits, selectivity assay for APJ receptor agonist project, dose response (AID 488865); format: functional;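 further: beta-arrestin recruitment to AT1 measured by enzyme fragment complementation luminescence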
T2 sequence (P30556 whole entry): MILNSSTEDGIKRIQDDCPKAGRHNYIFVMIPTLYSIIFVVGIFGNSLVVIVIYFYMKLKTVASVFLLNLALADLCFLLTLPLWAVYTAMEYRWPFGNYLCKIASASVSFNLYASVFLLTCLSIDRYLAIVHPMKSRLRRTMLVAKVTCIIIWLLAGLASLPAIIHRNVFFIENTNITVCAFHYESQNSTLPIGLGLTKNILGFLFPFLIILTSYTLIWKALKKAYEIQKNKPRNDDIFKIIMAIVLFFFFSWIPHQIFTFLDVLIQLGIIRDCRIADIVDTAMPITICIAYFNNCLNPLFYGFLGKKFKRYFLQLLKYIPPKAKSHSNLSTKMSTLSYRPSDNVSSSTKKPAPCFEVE

Kallikrein-7 = Kallikrein-7 (Homo sapiens, UniProt P49862); test: Fluorescence Intensity-based biochemical primary high throughput dose response assay to identify activators of kallikrein-7 (K7) zymogen.
Chain of Kallikrein-7 (P49862 whole entry): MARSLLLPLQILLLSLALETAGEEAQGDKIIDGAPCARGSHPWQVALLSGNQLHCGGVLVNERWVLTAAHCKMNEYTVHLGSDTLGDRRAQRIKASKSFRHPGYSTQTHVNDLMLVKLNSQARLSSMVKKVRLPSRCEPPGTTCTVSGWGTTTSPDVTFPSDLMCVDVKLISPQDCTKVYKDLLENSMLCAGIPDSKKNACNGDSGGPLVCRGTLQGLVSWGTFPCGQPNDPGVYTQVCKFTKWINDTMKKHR

Vibrio harveyi = test: LuxS/LuxPQ-dependent luminescence inhibition, V. harveyi – dry powder, set 2, dose response (AID 493072); format: functional, organism-based
[3] = target: G-protein coupled receptor 55 (Homo sapiens, UniProt Q9Y2T6); test: SAR Analysis of Selective Antagonists of GPR55 using an Image-Based Assay - Set 4. [Related pubchem assays (depositor defined):AID2013, AID2026]; format: functional;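 further: antagonism of response to 5 µM lysophosphatidylinositol agonist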
Chain of G-protein coupled receptor 55 (Q9Y2T6 whole entry): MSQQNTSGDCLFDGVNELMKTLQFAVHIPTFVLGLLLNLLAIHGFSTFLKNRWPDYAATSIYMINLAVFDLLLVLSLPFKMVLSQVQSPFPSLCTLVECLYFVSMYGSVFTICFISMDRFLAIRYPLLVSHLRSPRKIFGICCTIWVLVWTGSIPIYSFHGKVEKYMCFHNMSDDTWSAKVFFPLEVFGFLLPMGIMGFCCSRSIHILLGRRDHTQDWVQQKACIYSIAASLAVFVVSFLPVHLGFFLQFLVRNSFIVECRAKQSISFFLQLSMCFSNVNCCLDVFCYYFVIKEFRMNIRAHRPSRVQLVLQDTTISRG

Cannabinoid receptor 1 [4] = target: T3, Cannabinoid receptor 1 (Homo sapiens, UniProt P21554); test: SAR analysis of agonists of the Cannabinoid Receptor 1 using an Image-Based Assay - Set 4. [Related pubchem assays (depositor defined):AID2013, AID2026]; format: functional
T3 sequence (P21554 whole entry): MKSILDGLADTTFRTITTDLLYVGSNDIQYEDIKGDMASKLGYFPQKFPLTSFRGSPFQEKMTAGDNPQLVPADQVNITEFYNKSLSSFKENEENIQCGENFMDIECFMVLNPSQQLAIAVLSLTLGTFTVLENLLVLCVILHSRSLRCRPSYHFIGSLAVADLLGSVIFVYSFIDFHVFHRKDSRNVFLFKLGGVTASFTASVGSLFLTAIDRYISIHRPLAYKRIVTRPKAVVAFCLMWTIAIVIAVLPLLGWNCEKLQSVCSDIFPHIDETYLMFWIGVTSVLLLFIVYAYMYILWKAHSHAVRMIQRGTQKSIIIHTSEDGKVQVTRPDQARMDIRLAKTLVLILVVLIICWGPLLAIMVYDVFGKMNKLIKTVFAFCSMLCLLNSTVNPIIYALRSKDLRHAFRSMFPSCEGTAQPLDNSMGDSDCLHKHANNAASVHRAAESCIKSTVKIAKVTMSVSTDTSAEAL

[5] = target: T4, G-protein coupled receptor 35 (Homo sapiens, UniProt Q9HC97); test: SAR analysis of Antagonists of the GPR35 Receptor using an Image-Based Assay - Set 6. [Related pubchem assays (depositor defined):AID2013, AID2026]; format: functional
T4 sequence (Q9HC97 whole entry): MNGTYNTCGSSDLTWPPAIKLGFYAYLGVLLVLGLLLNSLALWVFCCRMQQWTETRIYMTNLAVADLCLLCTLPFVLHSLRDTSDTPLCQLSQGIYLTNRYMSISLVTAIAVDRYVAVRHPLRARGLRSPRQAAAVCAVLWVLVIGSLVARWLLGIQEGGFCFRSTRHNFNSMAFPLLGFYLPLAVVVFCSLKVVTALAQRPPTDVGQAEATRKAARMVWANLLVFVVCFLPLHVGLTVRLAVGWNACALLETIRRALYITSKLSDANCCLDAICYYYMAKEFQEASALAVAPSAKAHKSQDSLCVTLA

Cannabinoid receptor 1 [6] = target: T3, Cannabinoid receptor 1; test: SAR analysis of antagonists of the Cannabinoid Receptor 1 using an Image-Based Assay - Set 4. [Related pubchem assays (depositor defined):AID2013, AID2026]; format: functional
[7] = target: T4, G-protein coupled receptor 35; test: SAR analysis of Agonists of the GPR35 Receptor using an Image-Based Assay - Set 4. [Related pubchem assays (depositor defined):AID2013, AID2026]; format: functional
Cannabinoid receptor 2 [8] = target: T5, Cannabinoid receptor 2 (Homo sapiens, UniProt P34972); test: SAR analysis of agonists of the Cannabinoid Receptor 2 using an Image-Based Assay - Set 3. [Related pubchem assays (depositor defined):AID2013, AID2026]; format: functional
T5 sequence (P34972 whole entry): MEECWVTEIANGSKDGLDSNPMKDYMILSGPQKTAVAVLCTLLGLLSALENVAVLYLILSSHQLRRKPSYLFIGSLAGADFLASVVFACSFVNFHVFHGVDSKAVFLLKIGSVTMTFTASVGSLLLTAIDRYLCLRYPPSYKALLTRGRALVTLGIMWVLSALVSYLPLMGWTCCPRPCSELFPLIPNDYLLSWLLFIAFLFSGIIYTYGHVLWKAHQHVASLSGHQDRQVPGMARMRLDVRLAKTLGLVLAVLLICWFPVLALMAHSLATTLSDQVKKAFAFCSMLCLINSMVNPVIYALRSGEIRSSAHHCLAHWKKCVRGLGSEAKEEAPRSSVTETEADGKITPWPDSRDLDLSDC

Cannabinoid receptor 2 [9] = target: T5, Cannabinoid receptor 2; test: SAR analysis of antagonists of the Cannabinoid Receptor 2 using an Image-Based Assay - Set 3. [Related pubchem assays (depositor defined):AID2013, AID2026]; format: functional
[10] = target: T6, Ubiquitin-conjugating enzyme E2 N (Homo sapiens, UniProt P61088); format: functional
T6 sequence (P61088 whole entry): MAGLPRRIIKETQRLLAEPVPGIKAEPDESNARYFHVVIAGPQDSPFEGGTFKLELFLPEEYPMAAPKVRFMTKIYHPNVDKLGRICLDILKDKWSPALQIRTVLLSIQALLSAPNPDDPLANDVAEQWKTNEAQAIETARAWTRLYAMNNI

[11] = viability loss in HepG2 liver cells – cell-based, ATP luminescence, cherry-pick, set 6, cytotoxicity control, dose response (AID 1053125); format: functional
Bcl-2-related protein A1 = target: T7, Bcl-2-related protein A1 (Mus musculus, UniProt Q07440); format: functional;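 further: confirmatory dose–response counterscreen on Bfl-1, used to check hits from a UBC13 polyubiquitin inhibitor campaign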
T7 sequence (Q07440 whole entry): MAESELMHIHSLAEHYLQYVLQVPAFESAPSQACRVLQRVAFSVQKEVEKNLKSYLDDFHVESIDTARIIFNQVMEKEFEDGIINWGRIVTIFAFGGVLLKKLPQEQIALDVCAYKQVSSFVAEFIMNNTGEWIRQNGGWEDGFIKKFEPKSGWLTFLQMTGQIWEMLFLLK

[12] = target: T6, Ubiquitin-conjugating enzyme E2 N; format: functional; remark: listed apart in the source
cells [13] = details: A549
cells [14] = details: HEK293
Galanin receptor type 3 = target: T8, Galanin receptor type 3 (Homo sapiens, UniProt O60755); test: Fluorescence-based cell-based primary high throughput dose response assay to identify antagonists of the Galanin Receptor 3 (GalR3).; format: functional
T8 sequence (O60755 whole entry): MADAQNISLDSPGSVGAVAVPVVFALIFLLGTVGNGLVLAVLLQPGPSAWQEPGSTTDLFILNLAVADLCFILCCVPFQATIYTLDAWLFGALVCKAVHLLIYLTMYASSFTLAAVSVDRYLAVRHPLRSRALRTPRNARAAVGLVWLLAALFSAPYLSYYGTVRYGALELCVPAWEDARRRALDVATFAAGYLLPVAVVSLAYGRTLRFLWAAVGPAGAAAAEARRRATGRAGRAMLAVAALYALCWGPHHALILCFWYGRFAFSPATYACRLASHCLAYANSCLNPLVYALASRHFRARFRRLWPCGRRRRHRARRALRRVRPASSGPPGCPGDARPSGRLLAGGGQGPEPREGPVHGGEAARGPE

Leucine aminopeptidase = target: T9, Leucine aminopeptidase (Plasmodium falciparum 3D7, UniProt Q8IL11); test: P. falciparum M17LAP inhibitors, primary screen, biochemical, fluorogenic H-Leu-NHMec substrate, 1536-well (AID 1619); format: functional
T9 sequence (Q8IL11 whole entry): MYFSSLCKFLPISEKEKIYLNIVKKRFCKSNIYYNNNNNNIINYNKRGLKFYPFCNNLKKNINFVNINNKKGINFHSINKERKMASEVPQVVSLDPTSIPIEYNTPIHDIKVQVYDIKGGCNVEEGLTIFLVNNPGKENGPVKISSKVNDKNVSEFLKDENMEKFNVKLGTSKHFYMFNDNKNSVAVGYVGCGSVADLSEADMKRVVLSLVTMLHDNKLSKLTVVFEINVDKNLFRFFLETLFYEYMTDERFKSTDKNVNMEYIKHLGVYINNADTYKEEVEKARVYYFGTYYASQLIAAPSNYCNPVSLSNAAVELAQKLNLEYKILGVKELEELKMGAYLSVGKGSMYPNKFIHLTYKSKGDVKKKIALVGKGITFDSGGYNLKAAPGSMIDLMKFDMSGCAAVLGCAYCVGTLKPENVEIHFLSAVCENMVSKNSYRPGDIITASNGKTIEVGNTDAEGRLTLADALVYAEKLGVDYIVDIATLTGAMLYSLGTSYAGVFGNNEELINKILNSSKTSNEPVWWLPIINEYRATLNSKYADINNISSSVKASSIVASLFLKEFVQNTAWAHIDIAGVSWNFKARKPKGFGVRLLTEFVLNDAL

Protein RecA = target: T10, Protein RecA (Mycobacterium tuberculosis, UniProt P9WHJ3); test: Fluorescence Cell-Free Homogeneous Dose Retest to Identify Inhibitors of RecA-Intein Splicing Activity. [Related pubchem assays (depositor defined):AID2097, AID2223, AID489010, AID492950]; format: functional
T10 sequence (P9WHJ3 whole entry): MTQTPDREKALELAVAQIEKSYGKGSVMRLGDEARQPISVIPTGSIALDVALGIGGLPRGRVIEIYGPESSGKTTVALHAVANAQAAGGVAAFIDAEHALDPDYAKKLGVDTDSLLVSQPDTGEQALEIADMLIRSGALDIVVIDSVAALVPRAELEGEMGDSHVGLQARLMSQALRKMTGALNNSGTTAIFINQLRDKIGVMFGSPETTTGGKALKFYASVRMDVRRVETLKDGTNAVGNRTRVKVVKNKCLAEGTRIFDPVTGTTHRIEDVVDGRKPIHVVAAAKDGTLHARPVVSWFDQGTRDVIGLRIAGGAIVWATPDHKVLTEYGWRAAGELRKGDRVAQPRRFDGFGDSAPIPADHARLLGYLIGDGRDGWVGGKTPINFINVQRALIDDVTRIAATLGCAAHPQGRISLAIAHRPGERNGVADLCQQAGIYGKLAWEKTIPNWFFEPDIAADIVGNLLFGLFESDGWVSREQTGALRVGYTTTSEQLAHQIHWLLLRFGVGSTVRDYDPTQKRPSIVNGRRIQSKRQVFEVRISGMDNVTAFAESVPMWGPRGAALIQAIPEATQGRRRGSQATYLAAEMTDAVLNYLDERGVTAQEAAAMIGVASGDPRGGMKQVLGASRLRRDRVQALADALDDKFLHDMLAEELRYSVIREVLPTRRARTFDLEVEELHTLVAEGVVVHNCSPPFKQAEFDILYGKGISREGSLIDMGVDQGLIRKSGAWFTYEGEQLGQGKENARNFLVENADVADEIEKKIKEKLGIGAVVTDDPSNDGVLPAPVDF

[15] = Intein inhibitors as potential Tuberculosis drugs, a cytotoxicity screen. [Related pubchem assays (depositor defined):AID2221, AID2223, AID434968, AID435010, AID449749, AID449750, AID489010]; format: functional
cells [16] = format: functional, cell-based; details: HEK-CNG
[17] = target: T11, Replicative DNA helicase DnaB (Mycobacterium tuberculosis, UniProt P9WMR3); test: DnaB intein splicing inhibitors, dose response, biochemical, cell-free fluorescence (AID 449749); format: functional
T11 sequence (P9WMR3 whole entry): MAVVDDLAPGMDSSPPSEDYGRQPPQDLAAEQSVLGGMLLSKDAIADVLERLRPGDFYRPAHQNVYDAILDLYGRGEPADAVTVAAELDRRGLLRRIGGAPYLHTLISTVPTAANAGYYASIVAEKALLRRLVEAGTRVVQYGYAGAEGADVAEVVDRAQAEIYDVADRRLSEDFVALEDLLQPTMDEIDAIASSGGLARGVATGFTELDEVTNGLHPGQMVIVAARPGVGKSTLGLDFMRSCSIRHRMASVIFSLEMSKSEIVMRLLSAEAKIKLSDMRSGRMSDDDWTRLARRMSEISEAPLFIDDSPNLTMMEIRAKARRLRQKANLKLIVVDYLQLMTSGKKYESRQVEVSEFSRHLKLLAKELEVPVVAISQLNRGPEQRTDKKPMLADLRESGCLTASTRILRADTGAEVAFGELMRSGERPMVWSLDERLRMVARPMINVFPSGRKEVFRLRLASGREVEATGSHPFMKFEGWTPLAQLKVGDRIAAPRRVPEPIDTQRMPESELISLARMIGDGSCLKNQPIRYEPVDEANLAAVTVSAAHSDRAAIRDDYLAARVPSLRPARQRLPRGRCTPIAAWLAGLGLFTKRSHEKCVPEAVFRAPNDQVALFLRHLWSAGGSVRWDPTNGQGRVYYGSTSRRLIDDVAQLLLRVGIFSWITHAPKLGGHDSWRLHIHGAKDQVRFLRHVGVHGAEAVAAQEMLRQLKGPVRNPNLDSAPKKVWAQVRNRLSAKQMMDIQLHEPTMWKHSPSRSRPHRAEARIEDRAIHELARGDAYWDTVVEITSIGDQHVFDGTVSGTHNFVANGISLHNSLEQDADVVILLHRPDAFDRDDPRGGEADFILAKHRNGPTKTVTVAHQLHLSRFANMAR
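Wherever CC50 is given: cells exposed to compound for 72 hours before luminescence readout.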

CC1CCCCC1NC(=O)COC(=O)c1ccc2ncsc2c1 (centres undefined)
EC50 (T-cell): 48.4 µM (inactive)

COc1cccc2sc3cc(NCC[C@@H]4CCCN4C)ccc3c(=O)c12
AC50 [1]: 9.49 µM (active)
EC50 [2]: > 100 µM (inactive)
EC50 (Kallikrein-7): > 69.5 µM (inactive)

Cc1cccc(NC(=O)c2ccc(Oc3ccccc3)cc2)n1
AC50 (Vibrio harveyi): 15.2 µM (active)

O=C(Nc1ccc(S(=O)(=O)Nc2nccs2)cc1)c1cc(-c2cccs2)nc2ccccc12
IC50 [3]: 29 µM (inactive)
EC50 (Cannabinoid receptor 1 [4]): > 32 µM (inactive)
IC50 [5]: > 32 µM (inactive)
IC50 (Cannabinoid receptor 1 [6]): 4.09 µM (active)
EC50 [7]: > 32 µM (inactive)
EC50 (Cannabinoid receptor 2 [8]): > 32 µM (inactive)
IC50 (Cannabinoid receptor 2 [9]): > 32 µM (inactive)

CC(=O)NC(=S)NNC(=O)c1ccc(Br)cc1
IC50 [10]: 17 µM (active)
AC50 [11]: > 52 µM (inactive)
IC50 (Bcl-2-related protein A1): > 20 µM (inactive)
IC50 [12]: 14.9 µM (active)
AC50 (cells [13]): 46.3 µM (active)
AC50 (cells [14]): > 52 µM (inactive)

N#CC(C#N)C(c1ccsc1)c1c(-c2ccccc2)n[nH]c1O (centres undefined)
IC50 (Galanin receptor type 3): > 29.9 µM (inactive)
IC50 (Leucine aminopeptidase): 36.7 µM (active)
EC50 (Protein RecA): 0.468 µM (active)
CC50 [15]: > 40 µM (active)
EC50 (cells [16]): 17.4 µM (inactive)
AC50 [17]: 2.85 µM (active)
